Results from patent publication EP0867722A2, “Method for measuring interaction between sugar and target” (TAKARA SHUZO CO. LTD., priority 1997, dated 1998).

System: not listed separately
Assay: Photostability of labeling fluorophores under white fluorescent lamp (residual fluorescence)
Format: physicochemical
Details: 1 µM in 10 mM Tris-HCl buffer, pH 7.5, 25°C, white fluorescent lamp about 4000 lux, 16 hours; ratio of exposed solution to shaded solution
Source text: For the measurement of photostability, therefore, such labeling fluorophores are used. The following seven labeling fluorophores were selected. • 1. 2-Aminopyridine (AP) (Nacalai Tesque Inc.) • 2. […] 8-Amino-2-naphthol (AN) (Aldrich Chemical Company, Inc.) • 4. 5-((5-aminopentyl)thioureidyl)fluorescein (AF) (Molecular Probes Inc.) • 5. 5-Dimethylaminonapnthalene-1-(N-(2-minoethyl))sulfone (AD) (Molecular Probes Inc.) • 6. 2-Aminobenzamide (AB) (Oxford GlycoSystems Ltd.) • 7. 8-Amino-naphthalene-1,3,6-trisulfonic acid (ANTS) (Molecular Probes Inc.)
Each of the above reagents was dissolved in 10 mM Tris-HCl buffer, pH 7.5, to a concentration of 1 µM, and 1 ml of each solution was placed in a test tube of hard glass (size: diameter, 12 mm and length, 120mm) and allowed to stand at 25°C under a white fluorescent lamp. At this time, the illumination intensity in the vicinity of each solution was measured by an illumination photometer to be about 4000 lux. For controls, test tubes containing the same solutions were prepared, but they were shaded with aluminum foil and stored under the same conditions as described above. After 16 hours, the fluorescence of each solution was measured by fluorescent spectrophotometer RF-540 (Shimazu Corp.). The excitation and emission wavelengths used in the measurement of fluorescence of the solutions of each fluorescent substance, and residual fluorescence (i.e., ratio of the relative degree of fluorescence for the exposed solution to the relative degree of fluorescence for the shaded solution) are shown in Table 1.

SMILES | Residual fluorescence (%)
NC(=O)c1ccccc1N [AB, 2-Aminobenzamide] | 96%
CN(C)c1cccc2c(S(=O)(=O)NCCN)cccc12 [AD, 5-Dimethylaminonapnthalene-1-(N-(2-minoethyl))sulfone] | 97%
NCCCCCNC(=S)Nc1ccc2c(c1)C(=O)OC21c2ccc(O)cc2Oc2cc(O)ccc21 [AF, 5-((5-aminopentyl)thioureidyl)fluorescein] | 17%
Nc1cccc2ccc(O)cc12 [AN, 8-Amino-2-naphthol] | 84%
Nc1cc(S(=O)(=O)O)cc2cc(S(=O)(=O)O)cc(S(=O)(=O)O)c12 [ANTS, 8-Amino-naphthalene-1,3,6-trisulfonic acid] | 96%
Nc1ccccn1 [AP, 2-Aminopyridine] | 98%

Molecular target: T1, concanavalin A (Canavalia ensiformis, UniProt P02866)
T1 construct: purchased Honen Oil Co., Ltd
Assay: Fluorescence polarization measurement of interaction between fluorescence-labeled sugar fractions and concanavalin A
Format: binding
Details: 1 µM labeled sugar or fluorophore; no maximum means EC50 impossible to calculate
Source text: The interaction between the sugar molecules and the target molecules to be measured is not always highly specific as compared with antigen-antibody reaction. To find the most suitable combination, the degree of interaction should be evaluated. As an index to show the degree of interaction, for example, EC50 can be used, which is a half value of the minimum target concentration giving the maximum degree of fluorescence polarization.
BEACON™ 2000 (PanVera Corp.) was modified so as to be adapted for the detection of pyridylamino-labeled substances. […]
Seven fractions of fluorescence-labeled sugars prepared in the above item 1 were freeze-dried to remove water, acetonitrile and eluents-derived salts, and then used for the subsequent measurement of an interaction. The measurement of the degree of fluorescence polarization was conducted as follows. […]
In each of the eight solutions of concanavalin A in various concentrations, each fluorescence-labeled sugar fraction was dissolved to a concentration of 1 µM. After the dissolution, the solutions were allowed to stand at room temperature for 30 minutes, and the reaction mixtures thus obtained were used each in a volume of 100 µl to measure the degree of fluorescence polarization with a modified apparatus of the BEACON™ system as described in the above item 2, which was equipped with filters for excitation at 310 nm and emission at 390 nm. […]

SMILES | maximum in the degree of fluorescence polarization over the range of concentration of concanavalin A
Nc1ccccn1 [AP, 2-Aminopyridine] | no maximum
